Measured values from PubChem BioAssay AID330 (DTP/NCI, 2004).
Several values for one entry are separate records, joined by “and”; a condition that tells them apart may be missing. Identical values can stand only once. Toxic doses and inconclusive results are not listed. Rule for the calls: active = survival T/C of 150% or more; inactive = T/C below 125% in these data.

System: P388 leukemia ip, CD2F1 mice, survival T/C
Experiment: NCI In Vivo Anticancer Drug Screen. Data for tumor model P388 Leukemia (intraperitoneal) in CD2F1 (CDF1) mice
Details: endpoint: median survival time, higher = longer survival
In short: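 Mice carrying the transplanted tumor received test compound or vehicle. Survival was recorded in each group, and the value is the treated-group measurement divided by that of the vehicle-treated control group.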

[1] = dose: 25.0 mg/kg/injection, schedule: Q04DX003 (ip), vehicle: other
[2] = dose: 50.0 mg/kg/injection, schedule: Q04DX003 (ip), vehicle: other
[3] = dose: 100.0 mg/kg/injection, schedule: Q04DX003 (ip), vehicle: other
[4] = dose: 100.0 mg/kg/injection, schedule: Q04DX003 (ip), vehicle: saline
[5] = dose: 200.0 mg/kg/injection, schedule: Q04DX003 (ip), vehicle: saline
[6] = dose: 60.0 mg/kg/injection, schedule: Q01DX005 (ip), vehicle: saline with Tween-80
[7] = dose: 120.0 mg/kg/injection, schedule: Q01DX005 (ip), vehicle: saline with Tween-80
[8] = dose: 240.0 mg/kg/injection, schedule: Q01DX005 (ip), vehicle: saline with Tween-80

Measured: T/C

O=C(C1CC2CCC1C2)C1CC2CCC1C2 (stereo not given)
inactive: dose: 28.2 mg/kg/injection, schedule: Q01DX009 (ip), vehicle: saline with Tween-80 100 % of control | dose: 56.5 mg/kg/injection, schedule: Q01DX009 (ip), vehicle: saline with Tween-80 95 % of control | dose: 113.0 mg/kg/injection, schedule: Q01DX009 (ip), vehicle: saline with Tween-80 100 % of control

O=C(Cc1ccccn1)c1ccccc1
inactive: dose: 100.0 mg/kg/injection, schedule: Q01DX009 (ip), vehicle: Klucel (hydroxypropylcellulose) (HPC) 109 % of control | dose: 200.0 mg/kg/injection, schedule: Q01DX009 (ip), vehicle: Klucel (hydroxypropylcellulose) (HPC) 108 % of control | dose: 400.0 mg/kg/injection, schedule: Q01DX009 (ip), vehicle: Klucel (hydroxypropylcellulose) (HPC) 110 % of control

COc1c2ccoc2nc2c(OC)c3c(cc12)OCO3
inactive: dose: 6.25 mg/kg/injection, schedule: Q01DX009 (ip), vehicle: Klucel (hydroxypropylcellulose) (HPC) 105 % of control | dose: 12.5 mg/kg/injection, schedule: Q01DX009 (ip), vehicle: Klucel (hydroxypropylcellulose) (HPC) 99 % of control | dose: 25.0 mg/kg/injection, schedule: Q01DX009 (ip), vehicle: Klucel (hydroxypropylcellulose) (HPC) 94 % of control | dose: 50.0 mg/kg/injection, schedule: Q01DX009 (ip), vehicle: Klucel (hydroxypropylcellulose) (HPC) 94 % of control

CN(CCCCN(C)CCOS(C)(=O)=O)CCOS(C)(=O)=O
active: dose: 0.05 mg/kg/injection, schedule: Q01DX009 (ip), vehicle: saline 157 % of control | dose: 0.1 mg/kg/injection, schedule: Q01DX009 (ip), vehicle: saline 178 % of control | dose: 0.3 mg/kg/injection, schedule: Q01DX009 (ip), vehicle: saline 156 % of control | dose: 0.6 mg/kg/injection, schedule: Q01DX009 (ip), vehicle: saline 156 % of control | dose: 0.8 mg/kg/injection, schedule: Q04DX003 (ip), vehicle: saline 168 % of control | dose: 1.2 mg/kg/injection, schedule: Q04DX003 (ip), vehicle: saline 172 % of control | dose: 1.25 mg/kg/injection, schedule: Q01DX009 (ip), vehicle: saline 230 % of control | dose: 1.25 mg/kg/injection, schedule: Q04DX003 (ip), vehicle: saline with Tween-80 180 % of control | dose: 1.8 mg/kg/injection, schedule: Q04DX003 (ip), vehicle: saline 181 % of control | dose: 2.5 mg/kg/injection, schedule: Q04DX003 (ip), vehicle: saline with Tween-80 176 % of control | dose: 5.0 mg/kg/injection, schedule: Q04DX003 (ip), vehicle: saline with Tween-80 200 % of control | dose: 5.0 mg/kg/injection, schedule: Q04DX003 (ip), vehicle: saline 204 % of control
inactive: dose: 10.0 mg/kg/injection, schedule: Q04DX003 (ip), vehicle: saline 86 % of control

COC(=O)c1ccccc1N=NNc1ccccc1C#N
inactive: dose: 100.0 mg/kg/injection, schedule: Q01DX001 (ip), vehicle: Klucel (hydroxypropylcellulose) (HPC) 109 % of control | dose: 200.0 mg/kg/injection, schedule: Q01DX001 (ip), vehicle: Klucel (hydroxypropylcellulose) (HPC) 103 % of control | dose: 400.0 mg/kg/injection, schedule: Q01DX001 (ip), vehicle: Klucel (hydroxypropylcellulose) (HPC) 94 % of control

NC(CO)C(=O)O.[Cl-].[Cl-].[Cl-].[Cl-].[Pt+2] (stereo not given)
inactive: dose: 6.25 mg/kg/injection, schedule: Q01DX009 (ip), vehicle: saline 114 % of control | dose: 12.5 mg/kg/injection, schedule: Q01DX009 (ip), vehicle: saline 115 % of control
active: dose: 50.0 mg/kg/injection, schedule: Q01DX009 (ip), vehicle: saline 159 % of control

O=NN(CCCl)C(=O)NC1C2CC3CC(C2)CC1C3 (stereo not given)
active: dose: 4.0 mg/kg/injection, schedule: Q01DX009 (ip), vehicle: other 169 % of control | dose: 6.0 mg/kg/injection, schedule: Q01DX009 (ip), vehicle: other 225 % of control | dose: 7.5 mg/kg/injection, schedule: Q04DX003 (ip), vehicle: other 177 % of control | dose: 12.5 mg/kg/injection, schedule: Q04DX003 (ip), vehicle: other 180 % of control | [1] 300 % of control | [2] 300 % of control
inactive: dose: 1.78 mg/kg/injection, schedule: Q01DX009 (ip), vehicle: other 118 % of control | dose: 2.2 mg/kg/injection, schedule: Q04DX003 (ip), vehicle: other 104 % of control | dose: 2.66 mg/kg/injection, schedule: Q01DX009 (ip), vehicle: other 116 % of control | dose: 3.3 mg/kg/injection, schedule: Q04DX003 (ip), vehicle: other 118 % of control | [3] 105 % of control

CC(C)(C)c1cc(/C=N/n2c(-c3ccccc3)nc3ccccc3c2=O)cc(C(C)(C)C)c1O
inactive: dose: 60.0 mg/kg/injection, schedule: Q01DX005 (ip), vehicle: Klucel (hydroxypropylcellulose) (HPC) 98 % of control | dose: 120.0 mg/kg/injection, schedule: Q01DX005 (ip), vehicle: Klucel (hydroxypropylcellulose) (HPC) 97 % of control | dose: 240.0 mg/kg/injection, schedule: Q01DX005 (ip), vehicle: Klucel (hydroxypropylcellulose) (HPC) 90 % of control

Cc1cc[n+](CCC(N)=O)cc1
inactive: [4] 100 % of control | [5] 100 % of control

CC(C)CC(=O)Cc1nc2n(c1O)C(=N)N=N2
inactive: dose: 60.0 mg/kg/injection, schedule: Q01DX005 (ip), vehicle: saline 105 % of control | dose: 120.0 mg/kg/injection, schedule: Q01DX005 (ip), vehicle: saline 98 % of control | dose: 240.0 mg/kg/injection, schedule: Q01DX005 (ip), vehicle: saline 110 % of control

COc1ccc(/C=N/Nc2ccc([N+](=O)[O-])cc2[N+](=O)[O-])cc1
inactive: dose: 50.0 mg/kg/injection, schedule: Q04DX003 (ip), vehicle: saline with Tween-80 93 % of control | dose: 100.0 mg/kg/injection, schedule: Q04DX003 (ip), vehicle: saline with Tween-80 94 % of control | dose: 200.0 mg/kg/injection, schedule: Q04DX003 (ip), vehicle: saline with Tween-80 88 % of control | dose: 400.0 mg/kg/injection, schedule: Q04DX003 (ip), vehicle: saline with Tween-80 91 % of control

Oc1cc2c(cc1C(Nc1ccccn1)c1ccc3c(c1)OCO3)OCO2 (stereo not given)
inactive: [6] 108 % of control | [7] 108 % of control | [8] 95 % of control

N#Cc1c2c(n3c1[nH]c(=O)c1ccccc13)CCCC2
inactive: [6] 105 % of control | [7] 100 % of control | [8] 99 % of control

CC/C(=N\Nc1cc(C)[nH]c(=O)c1)c1ccccc1
inactive: dose: 100.0 mg/kg/injection, schedule: Q01DX001 (ip), vehicle: saline with Tween-80 98 % of control | dose: 200.0 mg/kg/injection, schedule: Q01DX001 (ip), vehicle: saline with Tween-80 86 % of control | dose: 400.0 mg/kg/injection, schedule: Q01DX001 (ip), vehicle: saline with Tween-80 89 % of control

CC1(C)CC(C)(OC(=O)c2ccc(F)cc2)[N+]([O-])=N1 (stereo not given)
inactive: dose: 4.7 mg/kg/injection, schedule: Q01DX009 (ip), vehicle: other 115 % of control | dose: 9.4 mg/kg/injection, schedule: Q01DX009 (ip), vehicle: other 112 % of control | dose: 18.8 mg/kg/injection, schedule: Q01DX009 (ip), vehicle: other 106 % of control | dose: 37.5 mg/kg/injection, schedule: Q01DX009 (ip), vehicle: other 120 % of control | dose: 75.0 mg/kg/injection, schedule: Q01DX009 (ip), vehicle: other 106 % of control | dose: 150.0 mg/kg/injection, schedule: Q01DX009 (ip), vehicle: other 101 % of control

COCCOCCOCCOCCOCCN
inactive: [4] 100 % of control | [5] 100 % of control | dose: 400.0 mg/kg/injection, schedule: Q04DX003 (ip), vehicle: saline 104 % of control

O=C1/C(=C/c2ccccc2)CCC/C1=C\c1ccccc1
inactive: dose: 25.0 mg/kg/injection, schedule: Q01DX009 (ip), vehicle: saline with Tween-80 104 % of control | dose: 50.0 mg/kg/injection, schedule: Q01DX009 (ip), vehicle: saline with Tween-80 104 % of control | dose: 100.0 mg/kg/injection, schedule: Q01DX009 (ip), vehicle: saline with Tween-80 100 % of control

CC(=O)C(c1ccccc1)[N+](C)(C)C (stereo not given)
inactive: [1] 100 % of control | [2] 100 % of control | [3] 98 % of control

Cc1nn(C(=O)c2cccnc2)c(-c2ccccc2)c1N=Nc1ccc(S(=O)(=O)N=C(N)N)cc1
inactive: dose: 3.12 mg/kg/injection, schedule: Q01DX005 (ip), vehicle: saline with Tween-80 98 % of control | dose: 6.25 mg/kg/injection, schedule: Q01DX005 (ip), vehicle: saline with Tween-80 95 % of control | dose: 12.5 mg/kg/injection, schedule: Q01DX005 (ip), vehicle: saline with Tween-80 105 % of control and 86 % of control | dose: 50.0 mg/kg/injection, schedule: Q01DX005 (ip), vehicle: saline with Tween-80 89 % of control
